Laboratory results taken from patent publication US20240182382A1, “ALIPHATIC 18F-RADIOLABELING OF A TETRAZINE PRECURSOR” (UNIVERSITY OF COPENHAGEN, priority 2021, published 2024).

Experiments:
CC49-TCO [1] = assay: Ex vivo blocking assay: blocking of [111In]Tz-Tg binding to CC49-TCO in LS174T tumor xenografts; design: species or system nude BALB/c mice; conditions: for Normalized Tumor blocking effect: change in tumor uptake of [111In]Tz-Tg 22 h p.i., Tz administered 1 h prior, normalized to non-blocked control, mean from n = 3 mice/group
Procedure: FIG. 3 show a schematic display of the blocking assay. The blocking effect of non-radiolabeled Tz was determined as the change in tumor uptake of [111 1n]Tz-Tg 22 h p.i. Each Tz was administered 1 h prior to [111 1n]Tz-Tg and the uptake normalized to a group of animals were no blocking was performed (control).
The inventors have recently developed a blocking assay that allows to assess the in vivo ligation performance of unlabeled tetrazine derivatives. This assay omits time-consuming development of radiolabeled tetrazines for every ligand to be tested. In this assay, binding of [^111In]Tz-Tg (see structure in example 7), a literature described pretargeted imaging agent, is blocked in vivo to the pretargeting vector CC49-TCO (described in Stéen, J.; Jørgensen, J. T.; Christoph, D.; Battisti, U. M.; Nørregaard, K.; Edem, P.; Bratteby, K.; Shalgunov, V.; Martin, W.; Svatunek, D.; Poulie, C. B. M.; Hvass, L.; Simon, M.; Thomas, W.; Rossin, R.; Robillard, M.; Kristensen, J. L.; Mikula, H.; Kjaer, A.; Herth, M. Lipophilicity and Click Reactivity Determine the Performance of Bioorthogonal Tetrazine Tools in Pretargeted in Vivo Chemistry; 2020 Dec. 24, 2020.), which was administered 72 h prior. The blocking effect of the unlabeled tetrazine derivatives is afterwards quantified via an ex vivo biodistribution study and normalized to the binding of [^111In]Tz-Tg determined without any blocking.
All animal studies were approved by the Danish Animal Welfare Council, ministry of Justice. Five weeks old female nude BALB/c mice (Charles River, Sulzfeld, Germany) were allowed to acclimatize for one week with access to water and chow ad libitum. Human colon cancer cell line (LS174T; obtained from ATCC) was cultured in minimum essential medium (MEM) supplemented with 10% fetal bovine serum, 1% L-glutamine, 1% sodium pyruvate, 1% non-essential amino acids, and 1% penicillin-streptomycin at 37° C. and 5% CO2. Cells were harvested by trypsinization at a confluence of 70-90% and subcutaneous tumors were established in the left flank of the 6 weeks old animals by inoculation of 5×10^6 LS174T cells resuspended in sterile PBS (100 μL) and allowed to grow for 7-10 days. Tumors were measured using a caliper and the volume calculated using the formula volume=1/2 (length×width 2).
Tumor-bearing animals were matched in groups based on their tumor volume (tumor volumes of ˜100-300 mm^3, n=3 in each group) and were administered 100 μg/100 μL of CC49-TCO (100 μg/100 μL, ˜7 TCO/mAb) per mouse. After 3 days, animals were injected with non-radioactive Tz (10-20 nmol). After 1 h, they were administered with IniTz-Tg (˜13 MBq/100 μL, 1-2 nmol) via the tail vein. [^111In]Tz-Tg was obtained and radiolabeled as previously described in Borjesson, P. K.; Jauw, Y. W.; de Bree, R.; Roos, J. C.; Castelijns, J. A.; Leemans, C. R.; van Dongen, G. A.; Boellaard, R. Radiation dosimetry of 89 Zr-labeled chimeric monoclonal antibody U36 as used for immuno-PET in head and neck cancer patients. J Nucl Med 2009, 50, 1828-36. The mice were euthanized after 22 h and tumor, blood, heart, lung, liver, spleen, kidney, and muscle were resected. All tissues were weighted, and the radioactivity measured in a gamma counter (Wizard2, Perkin Elmer) and data was corrected for decay, tissue weight and injected amount of radioactivity. FIG. 3 illustrate the workflow of the blocking assay.

[2] = Bench stability by analytical HPLC; type: physicochemical
Procedure: The stability of [^18F]13 and it precursor (28) was investigated by analytical HPLC. [^18F]13 was stable for at least 4 hours and therefore, sufficient for most applications (FIG. 5A). […] The process could be prevented storing the precursor (28) at −20° C. as a solid—at least for 3 months (FIG. 5B).

[3] = Reaction kinetics of tetrazines with TCO (stopped-flow, pseudo-first-order); type: physicochemical; conditions: Second order rate constants with TCO at 37° C. in PBS
Procedure: Reaction kinetics of tetrazines with standard TCO were determined using pseudo-first-order measurements with an excess of the TCO compound in PBS (pH=7.4) at 37.0±0.1° C. following the decrease of tetrazine absorbance at 535 nm. Measurements were performed in triplicates using an SX20 stopped-flow photometer (Applied Photophysics, UK) equipped with a 535 nm LED light source. Data analysis was performed using Prism 6 (Graphpad) to determine the observed rate constants which were converted into secondorder rate constants through dividing by the TCO concentration.
Second-order rate constants for the reaction with TCO in PBS at 37° C. were determined by pseudo-first order measurements in a SX20 stopped flow photometer (Applied Photophysics).

[4] = Tetrazine core reactivity test with TCO-PNP; type: physicochemical; conditions: for tetrazine core after radiolabeling: analytical chromatogram before and after TCO-PNP addition
Procedure: • a) The reaction between [^18F]13 TCO-PNP was performed by mixing the formulated [^18F]13 (200 μL) with 5 μL of the commercially available TCO-PNP ester dissolved in DMF (5 mg/mL) in an analytical HPLC vial. The solution was gently shaken and left for 1 min before it was injected on the analytical HPLC for analysis. • b) The reaction between [^18F]14 and TCO-PNB was performed by mixing the formulated [^18F]14 (200 μL) with 5 μL of the commercially available TCO-PNB ester dissolved in DMF (5 mg/mL) in an analytical HPLC vial. The solution was gently shaken and left for 1 min before it was injected on the analytical HPLC for analysis.

CC49-TCO [5] = assay: Pretargeted PET/CT imaging in LS174T tumor xenograft bearing mice; type: in vivo, Balb/c nude mice; conditions: for tumor-to-blood (T/B) ratio: 1 h; for tumor uptake: mice pretreated with CC49-TCO 72 h prior; for tumor-to-muscle ratio in comparison: compared to [64Cu]Cu-NOTA-PEG7-H-Tz, [111In]Tz-Tg and ZZ; for tumor-to-muscle (T/M) ratio: image derived, 1 h p.i., animals pretargeted with CC49-TCO; for pharmacokinetics: pretargeted experiments in mice
Procedure: The ability of [^18F]13 and [^18F]14 to be used as a pretargeting imaging agents was evaluated using a similar pretargeted setup that was used for the ex vivo blocking study in example 7. Mice were administered with CC49-TCO 72 h prior to administration of [^18F]13 or [^18F]14 where after PET/CT scanning was performed 1 h later. Control animals were injected with unconjugated mAb CC49 instead of CC49-TCO, but were otherwise treated exactly the same. After PET/CT scanning, animals were euthanized and an ex vivo biodistribution performed.
A) Pretargeted imaging of [^18F]13: Pretargeted imaging of [^18F]13 as tested in vivo using the TAG-72 targeting antibody CC49 in human colorectal cancer xenograft tumors LS174T. Tumors were established in 7-8 week old Balb/c nude mice and after one week, the animals were injected i.v. with either 50 ug […] TCO-modified CC49 (CC49-TCO, ˜7 TCO/mAb), or non-modified CC49 (control) (n=4 per group). 72 hours later, ^18F-13 (1.74±0.319 (mean±SD) MBq/100 μL (55.3 GBq/μmol) were injected i.v., followed by PET/CT-scan (Inveon®, Siemens Medical Solutions), one hour post injection. PET data was acquired in an energy window of 350-650 KeV and a time resolution of 6 ns followed by a CT scan (360 projections, 65 kV, 500 pA and 400 ms). PET and CT images were aligned by rigid affine registration, after which 3D regions of interest (ROI) were created on the full CT tumor volume, as well as heart and muscle tissue to quantify uptake of [^18F]13 (FIG. 6). Additionally, selected organs were harvested for ex vivo biodistribution. The radioactivity in the tissues were determined using a gamma counter (Wizard 2 , Perkin Elmer). Data was corrected for decay, tissue weight and the injected dose of radioactivity. GraphPad Prism 9 (GraphPad Software) was used for statistical analyses and plotting data. Statistical difference between mean % ID/g values were analyzed using Welch's T-test. Results were considered significant when p<0.05.
B) Pretargeted imaging of [^18]14: LS174T xenografts were established in mice as previously described. When tumors reached a size of ˜100 mm3 animals were matched based on their tumor volume and divided into two groups (tumor volumes of, n=5/group), and injected iv with 50 μg in 100 μL of either CC49-TCO or CC49. After 72 h the animals were administered iv with [^18F ]14(4.74±1.39 MBq in 100 μL) and PET/CT (Inveon, Siemens Medical Solutions, USA) scanned 1 h later, using a PET acquisition time of 5 min, an energy window of 350-650 KeV and a time resolution of 6 ns;
followed by a continuous 360 projections/360° CT scan, acquired with a x-ray tube voltage of 65 kV, a tube anode current of 500 pA and an exposure time per projection of 400 ms (FIG. 8). Mice were anaesthetized breathing 3% sevoflurane (5% for induction) mixed in 35% O2 in N2 and during scans the body temperature of the mice was kept stable using a heating pad.
Signograms from PET scans were reconstructed using a 3-dimensional maximum a posteriori algorithm with correction for scatter and attenuation. The mean percentage of injected dose per grams (% ID/g) was determined by manually creating regions of interest (ROI) on co-registered PET/CT images (Inveon Research Workplace software, Siemens Medical Solutions, USA).

SMILES: O=C(O)C(F)(F)F.O=C(O)CN(CCF)Cc1cc(F)cc(-c2nncnn2)c1 [Compound 9, N-(carboxymethyl)-2-fluoro-N-(3-fluoro-5-(1,2,4,5-tetrazin-3-yl)benzyl)ethanaminium 2,2,2-trifluoroacetate]
- Normalized Tumor blocking effect (CC49-TCO [1]): 76

SMILES: O=C(O)C(F)(F)F.O=C(O)CN(CCF)Cc1cccc(-c2nncnn2)c1 [Compound 10, N-(3-(1,2,4,5-tetrazin-3-yl)benzyl)-N-(carboxymethyl)-2-fluoroethanaminium 2,2,2-trifluoroacetate]
- Normalized Tumor blocking effect (CC49-TCO [1]): 75

SMILES: O=C(O)C(F)(F)F.O=C(O)CN(CCF)Cc1ccc(-c2nncnn2)cc1F [Compound 11, N-(carboxymethyl)-2-fluoro-N-(2-fluoro-4-(1,2,4,5-tetrazin-3-yl)benzyl)ethanaminium 2,2,2-trifluoroacetate]
- Normalized Tumor blocking effect (CC49-TCO [1]): 69

SMILES: O=C(O)C(F)(F)F.O=C(O)CN(CCF)Cc1ccc(-c2nncnn2)cc1 [Compound 12, N-(4-(1,2,4,5-tetrazin-3-yl)benzyl)-N-(carboxymethyl)-2-fluoroethanaminium 2,2,2-trifluoroacetate]
- Normalized Tumor blocking effect (CC49-TCO [1]): 69

SMILES: O=C(O)C(F)(F)F.O=C(O)CN(CC(=O)O)Cc1ccc(-c2nncnn2)cc1OCCF [Compound 13, 1-Carboxy-N-(carboxymethyl)-N-(2-(2-fluoroethoxy)-4-(1,2,4,5-tetrazin-3-yl)benzyl) methanaminium 2,2,2-trifluoroacetate]
- Normalized Tumor blocking effect (CC49-TCO [1]): 98

SMILES: O=C(O)C(F)(F)F.O=C(O)CN(CC(=O)O)Cc1ccc(-c2nnc(-c3ccc(OCCF)cn3)nn2)nc1 [Compound 14, 1-Carboxy-N-(carboxymethyl)-N-((6-(6-(5-(2-fluoroethoxy)pyridin-2-yl)-1,2,4,5-tetrazin-3-yl)pyridin-3-yl)methyl)methanaminium 2,2,2-trifluoroacetate]
- blocking effect (CC49-TCO [1]; blocking of [111In]Tz-Tg binding to CC49-TCO in vivo): 99%
- Normalized Tumor blocking effect (CC49-TCO [1]): 99

SMILES: CC(C)(C)OC(=O)CN(CC(=O)OC(C)(C)C)Cc1ccc(-c2nncnn2)cc1OCCOS(=O)(=O)c1ccc([N+](=O)[O-])cc1 [Compound 28, Di-tert-butyl 2,2′-((2-(2-(((4-nitrophenyl)sulfonyl)oxy)ethoxy)-4-(1,2,4,5-tetrazin-3-yl)benzyl)azanediyl)diacetate]
- stability of precursor ([2]; analytical HPLC): decomposed over time
- time stable ([2]; dissolved (25 mg/mL) in DMSO and frozen at −20° C.): at least 3 months
- time stable ([2]; stored at −20° C. as a solid): ≥ 3 months

SMILES: O=C(O)CN(CC(=O)O)Cc1ccc(-c2nnc(-c3ccc(OCCF)cn3)nn2)nc1 [Tz-Tg, reference compound]
- Rate constant [3]: 73742 M⁻¹ s⁻¹
- Normalized Tumor blocking effect (CC49-TCO [1]): 99

SMILES: O=C(O)CN(CC(=O)O)Cc1ccc(-c2nncnn2)cc1OCC[18F] [[^18F]13]
- ability to react with TCO-PNP ([4]; after 4 hours at r.t.): quantitatively
- tetrazine core after radiolabeling [4]: intact
- Stability at r.t. over 4 hours ([2]; after 4 hours at r.t.): no signs of decomposition
- time stable ([2]; formulated tracer at r.t., analytical HPLC): at least 4 hours
- tumor-to-blood (T/B) ratio (CC49-TCO [5]): 1.2
- Uptake in tissues beside tumor and blood (CC49-TCO [5]; PET/CT 1 h p.i.): low
- tumor uptake, control (CC49-TCO [5]; PET/CT 1 h p.i., control mice injected with unconjugated CC49 72 h prior, mean±S.E.M): 0.01±0.01 % ID/g
- tumor uptake (CC49-TCO [5]; PET/CT 1 h p.i., mean±S.E.M): 1.87±0.31 % ID/g
- tumor-to-muscle ratio in comparison (CC49-TCO [5]): highest
- tumor-to-muscle (T/M) ratio (CC49-TCO [5]): 20.1
- pharmacokinetics (CC49-TCO [5]): favorable

SMILES: O=C(O)CN(CC(=O)O)Cc1ccc(-c2nnc(-c3ccc(OCC[18F])cn3)nn2)nc1 [[^18F]14]
- tetrazine core after radiolabeling [4]: intact
- tumor-to-blood (T/B) ratio (CC49-TCO [5]): 0.8
- Uptake in muscle tissue (CC49-TCO [5]; PET/CT 1 h p.i.): generally low
- uptake in blood (heart used as a surrogate) (CC49-TCO [5]; PET/CT 1 h p.i., CC49-TCO group): high
- tumor uptake (CC49-TCO [5]; PET/CT 1 h p.i., mean±S.E.M): 1.8±0.3 % ID/g
- tumor-to-muscle ratio in comparison (CC49-TCO [5]): highest
- tumor-to-muscle (T/M) ratio (CC49-TCO [5]): 9.0
- pharmacokinetics (CC49-TCO [5]): favorable
